Test results from PubChem BioAssay AID300 (DTP/NCI, 2004).
“And” between values parts separate entries of the source, which are not always exact repeats. Identical values can stand only once. Inconclusive results are not listed. Rule for the calls: active = survival T/C of 150% or more; inactive = T/C below 125% in these data. *1 amine or outer side, *2 acyl side, *3 side chain or, on linkers, in order; H or OH if unused. Where a SMILES comes first, the peptide text is derived from it. Bridges are numbered along the chain shown (N, C = ends). Roman numbers before positions name the chains, in order. [ ]: non-standard residue; d: D form. Actinocin(9to1) = Cc1c2oc3c(C)ccc(C(=O)[*:1])c3nc-2c(C(=O)[*:2])c(N)c1=O; NMeV = CN[CH](C(=O)O)C(C)C; Sar = CNCC(=O)O

System: Madison 109 lung carcinoma i.m., mice, median survival
Assay: NCI In Vivo Anticancer Drug Screen. Data for tumor model Madison 109 Lung Carcinoma (intramuscular) in unknown mice
Conditions: endpoint: median survival time, higher = longer survival
Description: The antitumor activity of compounds was measured in mice bearing transplantable tumors. Survival or tumor size were measured and the results are expressed as the measurement made in the treated group (T) divided by the measurement made in the vehicle treated control group (C). The tumor model used in this assay is Madison 109 Lung Carcinoma (intramuscular) in unknown mice

[1] = dose: 10.0 mg/kg/injection, schedule: Q01DX009 (ip), vehicle: water
[2] = dose: 40.0 mg/kg/injection, schedule: Q01DX009 (ip), vehicle: water

Measured: T/C

O=C1OC(C(O)CO)C(O)=C1O (configuration not stated)
inactive: dose: 400.0 mg/kg/injection, schedule: Q01DX009 (ip), vehicle: other 98 % of control | dose: 800.0 mg/kg/injection, schedule: Q01DX009 (ip), vehicle: other 96 % of control | dose: 1600.0 mg/kg/injection, schedule: Q01DX009 (ip), vehicle: other 98 % of control

Cc1c2oc3c(C)ccc(C(=O)NC4C(=O)NC(C(C)C)C(=O)N5CCCC5C(=O)N(C)CC(=O)N(C)C(C(C)C)C(=O)OC4C)c3nc-2c(C(=O)NC2C(=O)NC(C(C)C)C(=O)N3CCCC3C(=O)N(C)CC(=O)N(C)C(C(C)C)C(=O)OC2C)c(N)c1=O (configuration not stated) (I: TVP[Sar][NMeV] / II: TVP[Sar][NMeV]; ester I:1-I:C, II:1-II:C; linker I:N-II:N via Actinocin(9to1); configuration not given here)
inactive: dose: 0.64 mg/kg/injection, schedule: Q01DX009 (ip), vehicle: water 118 % of control | dose: 0.84 mg/kg/injection, schedule: Q01DX009 (ip), vehicle: water 124 % of control

COC1=C(N)C(=O)c2nc(-c3nc(C(=O)O)c(C)c(-c4ccc(OC)c(OC)c4O)c3N)ccc2C1=O
inactive: dose: 2.0 micrograms/kg/injection, schedule: Q01DX009 (ip), vehicle: other 102 % of control | dose: 5.0 micrograms/kg/injection, schedule: Q01DX009 (ip), vehicle: other 103 % of control and 111 % of control | dose: 10.0 micrograms/kg/injection, schedule: Q01DX009 (ip), vehicle: other 106 % of control and 116 % of control | dose: 20.0 micrograms/kg/injection, schedule: Q01DX009 (ip), vehicle: other 115 % of control and 117 % of control | dose: 30.0 micrograms/kg/injection, schedule: Q01DX009 (ip), vehicle: other 109 % of control

C[C@]12C=CC(=O)C=C1CC[C@@H]1[C@@H]2C(=O)C[C@@]2(C)[C@H]1CC[C@]2(O)C(=O)CO
inactive: dose: 5.0 mg/kg/injection, schedule: Q01DX009 (ip), vehicle: saline 113 % of control | dose: 10.0 mg/kg/injection, schedule: Q01DX009 (ip), vehicle: saline 117 % of control | dose: 40.0 mg/kg/injection, schedule: Q01DX009 (ip), vehicle: saline 120 % of control

CCN(CC)CCOc1ccc2c(c1)C(=O)c1cc(OCCN(CC)CC)ccc1-2
inactive: dose: 25.0 mg/kg/injection, schedule: Q04DX009 (ip), vehicle: Klucel (hydroxypropylcellulose) (HPC) 111 % of control | dose: 50.0 mg/kg/injection, schedule: Q04DX009 (ip), vehicle: Klucel (hydroxypropylcellulose) (HPC) 114 % of control | dose: 75.0 mg/kg/injection, schedule: Q04DX009 (ip), vehicle: Klucel (hydroxypropylcellulose) (HPC) 102 % of control

COc1cc2c(c(OC)c1OC)-c1ccc(OC)c(=O)cc1[C@@H](NC(C)=O)CC2
inactive: dose: 0.06 mg/kg/injection, schedule: Q01DX009 (ip), vehicle: water 100 % of control | dose: 0.12 mg/kg/injection, schedule: Q01DX009 (ip), vehicle: water 90 % of control | dose: 0.24 mg/kg/injection, schedule: Q01DX009 (ip), vehicle: water 100 % of control

CN(Cc1cnc2nc(N)nc(N)c2n1)c1ccc(C(=O)N[C@@H](CCC(=O)O)C(=O)O)cc1
inactive: dose: 0.07 mg/kg/injection, schedule: Q01DX009 (ip), vehicle: sodium bicarbonate 99 % of control | dose: 0.15 mg/kg/injection, schedule: Q01DX009 (ip), vehicle: sodium bicarbonate 123 % of control | dose: 0.3 mg/kg/injection, schedule: Q01DX009 (ip), vehicle: sodium bicarbonate 108 % of control | dose: 0.6 mg/kg/injection, schedule: Q01DX009 (ip), vehicle: sodium bicarbonate 111 % of control

S=P(N1CC1)(N1CC1)N1CC1
inactive: dose: 1.5 mg/kg/injection, schedule: Q01DX009 (ip), vehicle: water 110 % of control | dose: 2.5 mg/kg/injection, schedule: Q01DX009 (ip), vehicle: water 101 % of control | dose: 3.0 mg/kg/injection, schedule: Q01DX009 (ip), vehicle: water 92 % of control | dose: 5.0 mg/kg/injection, schedule: Q01DX009 (ip), vehicle: water 109 % of control | dose: 6.0 mg/kg/injection, schedule: Q01DX009 (ip), vehicle: water 105 % of control | [1] 107 % of control | [2] 110 % of control

COc1ccc(C[C@H](N)C(=O)NC2C(CO)OC(n3cnc4c(N(C)C)ncnc43)C2O)cc1 (some centres not stated)
inactive: [1] 104 % of control | dose: 20.0 mg/kg/injection, schedule: Q01DX009 (ip), vehicle: water 105 % of control | [2] 104 % of control | dose: 80.0 mg/kg/injection, schedule: Q01DX009 (ip), vehicle: water 105 % of control

O=[N+]([O-])c1cccc([N+](=O)[O-])c1Cl
inactive: dose: 10.0 mg/kg/injection, schedule: Q02DX009 (ip), vehicle: water 105 % of control | dose: 20.0 mg/kg/injection, schedule: Q02DX009 (ip), vehicle: water 113 % of control | dose: 80.0 mg/kg/injection, schedule: Q02DX009 (ip), vehicle: water 122 % of control | dose: 160.0 mg/kg/injection, schedule: Q02DX009 (ip), vehicle: water 112 % of control and 103 % of control

O=CC(NC(=O)N(CCCl)N=O)C(O)C(O)C(O)CO (configuration not stated)
inactive: dose: 5.0 mg/kg/injection, schedule: Q01DX001 (ip), vehicle: saline 108 % of control | dose: 8.4 mg/kg/injection, schedule: Q01DX001 (ip), vehicle: saline 106 % of control | dose: 14.0 mg/kg/injection, schedule: Q01DX001 (ip), vehicle: saline 105 % of control | dose: 23.0 mg/kg/injection, schedule: Q01DX001 (ip), vehicle: saline 96 % of control

CO[C@H](C(=O)[C@@H](O)[C@@H](C)O)[C@@H]1Cc2cc3cc(OC4CC(OC5CC(O)C(O)C(C)O5)C(O)C(C)O4)c(C)c(O)c3c(O)c2C(=O)[C@H]1OC1CC(OC2CC(OC3CC(C)(O)C(O)C(C)O3)C(O)C(C)O2)C(O)C(C)O1 (some centres not stated)
inactive: dose: 0.05 mg/kg/injection, schedule: Q01DX009 (ip), vehicle: water 100 % of control | dose: 0.1 mg/kg/injection, schedule: Q01DX009 (ip), vehicle: water 100 % of control | dose: 0.2 mg/kg/injection, schedule: Q01DX009 (ip), vehicle: water 115 % of control | dose: 0.3 mg/kg/injection, schedule: Q01DX009 (ip), vehicle: water 86 % of control and 110 % of control | dose: 0.4 mg/kg/injection, schedule: Q01DX009 (ip), vehicle: water 108 % of control and 115 % of control | dose: 0.5 mg/kg/injection, schedule: Q01DX009 (ip), vehicle: water 103 % of control

NC(=O)c1ncn(C2OC(CO)C(O)C2O)n1 (configuration not stated)
inactive: dose: 12.5 mg/kg/injection, schedule: Q01DX009 (ip), vehicle: water 103 % of control | dose: 25.0 mg/kg/injection, schedule: Q01DX009 (ip), vehicle: water 100 % of control | dose: 50.0 mg/kg/injection, schedule: Q01DX009 (ip), vehicle: water 109 % of control | dose: 100.0 mg/kg/injection, schedule: Q01DX009 (ip), vehicle: water 115 % of control

CC1CCC(NC(=O)N(CCCl)N=O)CC1 (configuration not stated)
inactive: dose: 0.5 mg/kg/injection, schedule: Q01DX009 (ip), vehicle: saline 100 % of control | dose: 1.0 mg/kg/injection, schedule: Q01DX009 (ip), vehicle: saline 93 % of control | dose: 2.0 mg/kg/injection, schedule: Q01DX001 (ip), vehicle: saline 88 % of control | dose: 2.0 mg/kg/injection, schedule: Q01DX009 (ip), vehicle: saline 95 % of control | dose: 4.0 mg/kg/injection, schedule: Q01DX001 (ip), vehicle: saline 90 % of control | dose: 4.0 mg/kg/injection, schedule: Q01DX009 (ip), vehicle: saline 107 % of control | dose: 8.0 mg/kg/injection, schedule: Q01DX001 (ip), vehicle: saline 93 % of control | dose: 8.0 mg/kg/injection, schedule: Q01DX009 (ip), vehicle: saline 115 % of control | dose: 16.0 mg/kg/injection, schedule: Q01DX001 (ip), vehicle: saline 100 % of control | dose: 32.0 mg/kg/injection, schedule: Q01DX001 (ip), vehicle: saline 106 % of control
